Experimental data as given in patent US11230535B2, “CFTR regulators and methods of use thereof” (THE REGENTS OF THE UNIVERSITY OF CALIFORNIA, priority 2015, dated 2022).
“Also recorded” adds a separate entry of the source.

Tested on: mice
Assay: Tear secretion / tear volume in mice (phenol red thread)
Type: in vivo, mouse
Settings: mouse, in vivo
Experimental: (§1) To measure unstimulated tear production, phenol red threads (Zone-Quick, Oasis Medical, Glendora, Calif., USA) were placed for 10 s in the lateral canthi of isofluorane-anesthetized mice using jewelers' forceps. Tear volume was measured as the length of thread wetting, as visualized under a dissecting microscope. Serial measurements were used to evaluate compound pharmacodynamics after application of 2-μL drops of compound formulations (50-100 μM compound in PBS containing 0.5% polysorbate and 0.5% DMSO) comparing to vehicle.
as §1, with “Tear secretion. To” for “To”, “2-[…]L” for “2-μL”
Tear volume. Tear volume was measured using phenol red threads (Zone-Quick, Oasis Medical, Glendora, Calif.) as described. Threads were placed for 10 s in the lateral canthi of isofluorane-anesthetized mice using jewelers' forceps. Tear volume was determined from the length of thread wetting as visualized under a dissecting microscope. Serial measurements were done to evaluate compound pharmacodynamics after topical application of a single, 2.5-μL drop of ophthalmic formulation containing 0-100 μM of 1 or 12 in Ringer's solution with 0.3% carboxymethylcellulose (high viscosity, VWR, Radnor, Pa.), 0.015% benzalkonium chloride preservative, and 1% DMSO. Both eyes in each mouse received the same treatment to control for potential contralateral effects of a given treatment.

Row | Compound | basal tear secretion at 30 min | effect on tear secretion after 2 hours
1 | cholera toxin | substantially increased | undetectable

Same assay, conditions: single topical dose, 30 min

Row | Compound | basal tear secretion at 30 min
2 | CC(C)Cn1c(=O)n(C)c(=O)c2[nH]cnc21 [IBMX, 3-isobutyl-1-methylxanthine, reference compound] | substantially increased

Same assay, conditions: single topical dose, after 2 hours

Row | Compound | effect on tear secretion after 2 hours
3 | CC(C)Cn1c(=O)n(C)c(=O)c2[nH]cnc21 [IBMX, 3-isobutyl-1-methylxanthine, reference compound] | undetectable

Tested on: rat liver microsomes
Assay: In vitro metabolic stability in rat liver microsomes
Type: in vitro ADME
Settings: 5 μM, rat hepatic microsomes, NADPH
Experimental: In vitro metabolic stability. Compounds (each 5 μM) were incubated for specified times at 37° C. with rat liver microsomes (1 mg/ml; Sigma-Aldrich) in potassium phosphate buffer containing 1 mM NADPH, as described^14.

Row | Compound | original compound remaining at 60 min [%]
4 | CCN(CC)c1nc(Nc2ccc3ncoc3c2)nc(OC(C(F)(F)F)C(F)(F)F)n1 [6j, N′-(1,3-Benzoxazol-6-yl)-N,N-diethyl-6-[(1,1,1,3,3,3-hexafluoropropan-2-yl)oxy]-1,3,5-triazine-2,4-diamine] | ~60

Same assay, conditions: NADPH

Row | Compound | metabolic stability in hepatic microsomes, in words
5 | CCN(CC)c1nc(Nc2ccc3ncoc3c2)nc(OC(C(F)(F)F)C(F)(F)F)n1 [6j, N′-(1,3-Benzoxazol-6-yl)-N,N-diethyl-6-[(1,1,1,3,3,3-hexafluoropropan-2-yl)oxy]-1,3,5-triazine-2,4-diamine] | metabolized slowly; also recorded: substantially greater in vitro metabolic stability than 1 or 12

Tested on: loperamide-treated mice
Assay: Loperamide-induced mouse model of constipation (3-h stool weight, pellet number, water content)
Settings: wildtype loperamide-treated mice

Row | Compound | effect of inactive analog on stool parameters
6 | Cn1c(=O)c(-c2cc([N+](=O)[O-])ccc2N)nc2ccccc21 [inactive chemical analog of CFTRact-J027, reference compound] | nor was an inactive chemical analog of CFTRact-J027 effective

Target: human wild-type CFTR (Homo sapiens, UniProt P13569)
Sequence (P13569 whole entry): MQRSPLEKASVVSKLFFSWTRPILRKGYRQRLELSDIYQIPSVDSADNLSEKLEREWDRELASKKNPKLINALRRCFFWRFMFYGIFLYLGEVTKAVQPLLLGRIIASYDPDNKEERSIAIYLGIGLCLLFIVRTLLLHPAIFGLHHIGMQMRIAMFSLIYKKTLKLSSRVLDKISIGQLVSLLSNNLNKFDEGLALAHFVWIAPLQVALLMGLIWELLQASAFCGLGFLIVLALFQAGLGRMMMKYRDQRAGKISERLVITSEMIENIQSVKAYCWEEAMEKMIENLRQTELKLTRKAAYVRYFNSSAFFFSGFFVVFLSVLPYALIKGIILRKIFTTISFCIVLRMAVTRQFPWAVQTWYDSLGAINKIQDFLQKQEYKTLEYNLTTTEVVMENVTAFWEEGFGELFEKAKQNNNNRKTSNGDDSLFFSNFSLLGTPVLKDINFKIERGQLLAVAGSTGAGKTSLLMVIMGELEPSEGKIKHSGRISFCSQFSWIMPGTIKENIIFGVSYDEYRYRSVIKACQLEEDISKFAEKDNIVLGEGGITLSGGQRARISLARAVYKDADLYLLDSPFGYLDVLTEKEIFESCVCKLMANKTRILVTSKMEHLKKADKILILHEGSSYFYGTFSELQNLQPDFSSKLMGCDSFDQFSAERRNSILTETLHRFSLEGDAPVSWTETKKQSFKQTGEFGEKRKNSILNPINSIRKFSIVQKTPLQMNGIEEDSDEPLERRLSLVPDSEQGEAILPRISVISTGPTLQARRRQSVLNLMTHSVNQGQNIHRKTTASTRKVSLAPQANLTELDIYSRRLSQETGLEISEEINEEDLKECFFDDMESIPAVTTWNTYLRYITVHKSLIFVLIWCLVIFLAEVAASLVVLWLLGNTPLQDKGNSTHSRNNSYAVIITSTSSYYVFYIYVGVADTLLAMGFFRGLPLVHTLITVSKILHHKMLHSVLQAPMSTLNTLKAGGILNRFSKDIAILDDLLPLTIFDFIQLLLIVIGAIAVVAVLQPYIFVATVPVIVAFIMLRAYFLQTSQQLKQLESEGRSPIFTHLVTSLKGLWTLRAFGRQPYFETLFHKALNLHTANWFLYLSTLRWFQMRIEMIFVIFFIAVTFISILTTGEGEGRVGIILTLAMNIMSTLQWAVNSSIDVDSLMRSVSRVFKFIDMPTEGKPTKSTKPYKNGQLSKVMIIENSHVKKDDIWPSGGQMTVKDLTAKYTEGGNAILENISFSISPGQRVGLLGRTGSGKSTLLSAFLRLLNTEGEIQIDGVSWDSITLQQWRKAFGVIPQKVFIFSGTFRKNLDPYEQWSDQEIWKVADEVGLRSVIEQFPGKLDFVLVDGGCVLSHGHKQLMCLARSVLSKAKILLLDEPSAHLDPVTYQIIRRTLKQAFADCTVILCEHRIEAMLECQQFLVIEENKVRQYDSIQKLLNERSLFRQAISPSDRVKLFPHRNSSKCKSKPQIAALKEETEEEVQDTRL
Assay: Cell-based plate reader (YFP iodide influx) assay of CFTR function
Parameters: expressed in transfected cells; host or cells: Fischer rat thyroid (FRT) cells stably co-expressing YFP-H148Q
Settings: N-methyl-N′-phenyl-1,3,5-triazine diamine analogs; read-out: EC50
Experimental: The initiate rate of I^− influx was computed by determined using exponential regression. All compound plates contained negative controls (DMSO vehicle) and positive controls (20 μM forskolin).
High-throughput screening. […] The initiate rate of I^− influx was computed by determined using exponential regression. All compound plates contained negative controls (DMSO vehicle) and positive controls ([…] forskolin).
Platereader assays of chloride channel function. CFTR activity was assayed as described. […] I^− influx was measured in a plate reader with initial baseline read for 2 s and then for 12 s after rapid addition of an I^−-containing solution. TMEM16A activity was assayed similarly as described using FRT cells co-expressing YFP and TMEM16A. Activity of non-TMEM16A CaCC was assayed as described in HT-29 cells expressing YFP. In each assay initial rates of I^− influx were computed as a linear measure of channel function.

Row | Compound | EC50 [nM]
7 | CNc1nc(Nc2ccccc2)nc(OC(C(F)(F)F)C(F)(F)F)n1 [compound 11] | 120

Same assay, conditions: bicyclic aniline analogs; read-out: EC50

Row | Compound | EC50 [nM]
8 | CCN(CC)c1nc(Nc2ccc3ncoc3c2)nc(OC(C(F)(F)F)C(F)(F)F)n1 [6j, N′-(1,3-Benzoxazol-6-yl)-N,N-diethyl-6-[(1,1,1,3,3,3-hexafluoropropan-2-yl)oxy]-1,3,5-triazine-2,4-diamine] | 150

Same assay, conditions: commercial analogs; FRT cells with YFP and wildtype CFTR, 125 nM forskolin

Row | Compound | % Activation [%]
9 | Fc1ccc(Nc2nc(OC(C(F)(F)F)C(F)(F)F)nc(N3CCCCC3)n2)cc1 [K062] | 49
10 | FC(F)(F)C(Oc1nc(N2CCCCCC2)nc(N(c2ccccc2)c2ccccc2)n1)C(F)(F)F [K063] | 41
11 | CC(=O)N1CCN(c2nc(Nc3ccccc3C(=O)c3ccccc3)nc(OC(C(F)(F)F)C(F)(F)F)n2)CC1 [K064] | 40
12 | FC(F)(F)C(Oc1nc(Nc2ccc(Cl)cc2)nc(N2CCOCC2)n1)C(F)(F)F [K065] | 38
13 | CCOc1nc(Nc2ccc(-c3nc4ccccc4o3)cc2)nc(N2CCOCC2)n1 [K066] | 87
14 | C=CCNc1nc(Nc2ccc(-c3nc4ccccc4o3)cc2)nc(OCC)n1 [K067] | 49
15 | CCOc1nc(NCCO)nc(Nc2ccc(-c3nc4ccccc4o3)cc2)n1 [K068] | 84
16 | FC(F)(F)COc1nc(Nc2ccc(OC(F)(F)Cl)cc2)nc(N2CCOCC2)n1 [K069] | 37
17 | FC(F)(F)COc1nc(Nc2ccc(OC(F)(F)Cl)cc2)nc(N2CCCCC2)n1 [K070] | 28
18 | CN1CCN(c2nc(Nc3ccc(OC(F)(F)Cl)cc3)nc(OCC(F)(F)F)n2)CC1 [K071] | 25
19 | FC(F)(F)COc1nc(Nc2ccc(OC(F)(F)F)cc2)nc(N2CCOCC2)n1 [K072] | 31
20 | FC(F)(F)COc1nc(Nc2ccc(OC(F)(F)F)cc2)nc(N2CCCCC2)n1 [K073] | 19
21 | CN1CCN(c2nc(Nc3ccc(OC(F)(F)F)cc3)nc(OCC(F)(F)F)n2)CC1 [K074] | 25
22 | CN(C)c1nc(Nc2ccc(OC(F)(F)Cl)cc2)nc(OCC(F)(F)F)n1 [K075] | 32
23 | C=CCNc1nc(Nc2ccc(OC(F)(F)Cl)cc2)nc(OCC(F)(F)F)n1 [K076] | 46
24 | C=CCNc1nc(Nc2ccc(OC(F)(F)Cl)cc2)nc(OCC(F)(F)F)n1 [K077] | 29
25 | OCCNc1nc(Nc2ccc(OC(F)(F)Cl)cc2)nc(OCC(F)(F)F)n1 [K078] | 28
26 | FC(F)(F)COc1nc(Nc2ccc(OC(F)(F)F)cc2)nc(NC2CC2)n1 [K079] | 40
27 | FC(F)(F)COc1nc(NCc2ccccc2)nc(Nc2ccc(OC(F)(F)Cl)cc2)n1 [K080] | 26
28 | FC(F)(F)COc1nc(Nc2ccc(OC(F)(F)Cl)cc2)nc(N2CCN(c3cccc(Cl)c3)CC2)n1 [K081] | 24
29 | FC(F)(F)COc1nc(NCc2ccccc2)nc(Nc2ccc(OC(F)(F)F)cc2)n1 [K082] | 28
30 | FC(F)(F)COc1nc(Nc2ccc(OC(F)(F)Cl)cc2)nc(NC2CC2)n1 [K083] | 54
31 | CCC(C)Nc1nc(Nc2ccc(OC(F)(F)Cl)cc2)nc(OCC(F)(F)F)n1 (stereo not shown) [K084] | 22
32 | CCCCNc1nc(Nc2ccc(OC(F)(F)Cl)cc2)nc(OCC(F)(F)F)n1 [K085] | 25
33 | CCC(C)Nc1nc(Nc2ccc(OC(F)(F)F)cc2)nc(OCC(F)(F)F)n1 (stereo not shown) [K086] | 20
34 | CN(C)c1nc(Nc2ccc(Cl)cc2)nc(OCCNC(=O)c2ccc(Cl)cc2)n1 [K087] | 47
35 | CCCCCCNc1nc(Nc2ccc([N+](=O)[O-])cc2)nc(OCC)n1 [K088] | 33
36 | CCOc1nc(NCCN2CCOCC2)nc(Nc2ccc([N+](=O)[O-])cc2)n1 [K090] | 52
37 | Cc1cc(I)ccc1Nc1nc(NCCN2CCOCC2)nc(OCC(F)(F)F)n1 [K091] | 43

Same assay, conditions: commercial analogs; read-out: EC50 (full-dose response assay, compounds >80% activation)

Row | Compound | EC50 [nM]
38 | CCOc1nc(Nc2ccc(-c3nc4ccccc4o3)cc2)nc(N2CCOCC2)n1 [K066] | 2900
39 | CCOc1nc(NCCO)nc(Nc2ccc(-c3nc4ccccc4o3)cc2)n1 [K068] | 4100
